This note sets out measurements from EPA's ToxValDB 9.5 (doi:10.2903/j.efsa.2011.1969).

≈ marks a conversion by molar mass, not a printed value.

One data set has as its system Anas platyrhynchos. Conditions: short-term; oral; feed; mortality.
The subject of a further data set is Apis mellifera. Particulars: acute; duration: 48 hours; oral; unspecified; mortality.
The test system of another data set is Bibionidae. Particulars: chronic/long-term; duration: 27 days.
For a further data set, the system named is Colinus virginianus. Conditions: acute; oral; mortality.
The next data set deals with Coturnix japonica. Conditions: reproduction developmental.
The test system of the next data set is Daphnia magna. Conditions: chronic/long-term; duration: 21 days; reproduction.
The next data set relates to Folsomia candida. Particulars: chronic/long-term; duration: 28 days.
The subject of the next data set is Tagia sp. Particulars: acute; duration: 14 days; mortality.
The test system of a further data set is Aphidius rhopalosiphi. The data set can be described thus: LR50; higher = less toxic. Particulars: not reported; mortality.
A further data set relates to Typhlodromus pyri. The data set is described as follows: LR50; higher = less toxic. Conditions: not reported; mortality.

On to `CCNc1nc(Cl)nc(NC(C)(C)C)n1` [Terbutylazine], for which the LC50 in the data set with Anas platyrhynchos is greater than 395 mg/kg-day; in the data set with Oncorhynchus mykiss (acute, duration: 96 hours, mortality) it was 2.2 µg/mL (≈ 9.58 µM); in the data set with Tagia sp., greater than 283 mg/kg. The LD50 was greater than 22.6 µg/piece in the data set with Apis mellifera; 1240 mg/kg-day in the data set on Colinus virginianus; less than 1590 mg/kg in the data set with Rattus norvegicus (acute, oral, mortality). For the same compound, the NOEC with Bibionidae is 0.5 mg/L; in the data set with Daphnia magna it was 0.019 mg/L; with Folsomia candida it was 42.2 mg/kg; in the data set with Oncorhynchus mykiss (chronic/long-term, duration: 90 days, time to swim up), 0.09 mg/L. This compound also showed an NOEL in the data set on Coturnix japonica of 13.8 mg/kg-day. The NOAEL in the data set on Rattus norvegicus (chronic) was found to be 3.3 mg/kg-day. Further, the LR50 in the data set on Aphidius rhopalosiphi and in the data set on Typhlodromus pyri was greater than 750 g/ha in each case.
